Laboratory results published in patent US8252790B2, “Pyrazole-3-carboxamide derivative having 5-HT2B receptor antagonist activity” (Raqualia Pharma Inc., priority 2008, dated 2012).

Test system: TNBS induced IBS model
Assay: Colonic distension study in TNBS induced rat IBS model (pain threshold)
Type: in vivo
Conditions: male SD rats, TNBS 50 mg/kg, 7 days after surgery; 10 mg/kg p.o.; FIG. 1
Protocol: [Evaluation of Therapeutic Effects on IBS in the Rat]
The pharmacological effects of the test compounds in this invention was evaluated by measuring the improvement effect against lowering of the pain threshold at colon extension stimulation in TNBS induced IBS model.
For details, please refer to the literature, Katsuyo Ohashi at al., Pharmacology, 81(2): 144-150 (2008).
The median incision was conducted under anesthesia in animals, male SD rats, 240-270 g. TNBS solution (50 mg/kg, 30% methanol) was treated at the beginning of the colon in the rats. After the treatment, the cecum is put back into the abdominal cavity. The muscle wall is then sutured. After operation the animals were housed in the normal environment, and were used for the pharmacological evaluation after 7 days from the surgery. The colon extension stimulation was used for the evaluation of the compounds, Diop L. et al., J Pharmacol Exp Ther. 302(3): 1013-22 (2002). The balloon (5 cm in length) is inserted through the anus and kept in position (tip of balloon is 5 cm from the anus). Then the balloon was progressively inflated by step of 5 mm Hg, from 0 to 70 mm Hg by using Barostat (Barostat DISTENDER II R, G & J, CANADA). The pain threshold was evaluated the pressure that corresponded to produced the first abdominal contraction (abdominal cramp: Wesselmann U et al., (1998) Neurosci Lett 246: 73-76). […]

Cn1nc(C(=O)NCCN2CCOCC2)cc1-c1cc2cccnc2[nH]1 [Example compound 24, 1-methyl-N-[2-(morpholin-4-yl)ethyl]-5-{1H-pyrrolo[2,3-b]pyridin-2-yl}-1H-pyrazole-3-carboxamide]
improvement effect against lowering of the pain threshold at colon extension stimulation: improvement effects against lowering of the pain threshold
